Where two headings read alike, the source gives them in different places.
Experiments:
[1] = tested on: acutely dissociated and purified rat OPCs; assay: Acute OL differentiation assay (MBP expression/cell, immunofluorescent image quantification); assay type: cell-based; settings: sheet "All OLga data"; for activation at 2 µM / activation at 10 µM / activation at 0.4 µM / activation at 0.08 µM: Rattus norvegicus; for activation at 0.08 µM: test compound at 0.08 uM, read-out: 0.08 uM (% Quet)
Outline: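 Oligodendrocyte precursor cells were enriched from P6-P7 Sprague–Dawley rat brains by immunopanning (RAN-2 and GalC depletion, O4 selection), plated at 5000 cells/well in serum-free, mitogen-free differentiation media on PDL/laminin 96-well view plates, centrifuged at 200×g, and pre-incubated 1–2 h before test compounds were added in quadruplicate. On DIV4, cells were fixed, stained for MBP and DAPI, imaged automatically, and MBP expression per cell was quantified.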

expanded OPCs = assay: cells; settings: for viability at 0.1 µM / viability at 1 µM / viability at 10 µM: Rattus norvegicus, 72 h
Outline: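 Expanded OPCs seeded at 10,000 cells/well in differentiation media, then exposed to NCC library compounds at 10, 1 and 0.1 µM (quadruplicate, 0.1% DMSO) for three days. Viability read as alamarBlue fluorescence (560/590 nm) after 4 h at 37 °C; tunicamycin 5 ng/ml served as toxicity control.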

[2] = 2 uM test compound, relative to quetiapine, read-out: OL differentiation, 2 uM (% Quet)
[3] = 10 uM test compound, relative to quetiapine, read-out: OL differentiation, 10 uM (% Quet)
[4] = read-out: 0.1 µM (% DMSO), alamarBlue viability of expanded OPCs, compound at 0.1 µM, sheet All Tox data
[5] = read-out: 1 µM (% DMSO), alamarBlue viability of expanded OPCs, compound at 1 µM, sheet All Tox data
[6] = read-out: 10 µM (% DMSO), alamarBlue viability of expanded OPCs, compound at 10 µM, sheet All Tox data
[7] = test compound at 2 uM, MBP expression relative to quetiapine, NCC library screen, read-out: 2 uM (% Quet)
[8] = test compound at 10 uM, MBP expression relative to quetiapine, NCC library screen, read-out: 10 uM (% Quet)
[9] = alamarBlue viability of expanded OPCs, compound at 0.1 µM, relative to DMSO control
[10] = alamarBlue viability of expanded OPCs, compound at 1 µM, relative to DMSO control
[11] = alamarBlue viability of expanded OPCs, compound at 10 µM, relative to DMSO control
[12] = test compound at 2 uM, NCC library screen, relative to quetiapine, read-out: 2 uM (% Quet)
[13] = test compound at 10 uM, NCC library screen, relative to quetiapine, read-out: 10 uM (% Quet)
[14] = read-out: 0.1 µM (% DMSO), alamarBlue viability, NCC library compound at 0.1 µM, sheet "All Tox data"
[15] = read-out: 1 µM (% DMSO), alamarBlue viability, NCC library compound at 1 µM, sheet "All Tox data"
[16] = read-out: 10 µM (% DMSO), alamarBlue viability, NCC library compound at 10 µM, sheet "All Tox data"
[17] = 0.4 uM test compound, relative to quetiapine, read-out: OL differentiation, 0.4 uM (% Quet)
[18] = test compound at 0.4 uM, MBP expression relative to quetiapine, NCC library screen, read-out: 0.4 uM (% Quet)

SMILES	activation at 2 µM [1, 2]	viability at 0.1 µM (expanded OPCs; [4])	viability at 1 µM (expanded OPCs; [5])	viability at 10 µM (expanded OPCs; [6])	0.1 µM (% DMSO) (expanded OPCs; [9])	1 µM (% DMSO) (expanded OPCs; [10])	10 µM (% DMSO) (expanded OPCs; [11])	further results
CN1CC[C@]23CCCC[C@H]2[C@H]1Cc1ccc(O)cc13 [Levorphanol]	-6.9%	77.4%	83.4%	74%	–	–	–	activation at 10 µM [1, 3]: 17%
CCN(CC)CC(=O)Nc1c(C)cccc1C [Lidocaine]	-0.03%	84.8%	86%	85.5%	–	–	–	activation at 10 µM [1, 3]: 17.6%
CCC[C@@H]1C[C@@H](C(=O)N[C@@H]([C@H]2O[C@H](SC)[C@H](O)[C@@H](O)[C@H]2O)[C@@H](C)O)N(C)C1 [Lincomycin]	–	–	–	–	93.6 % DMSO	94.1 % DMSO	87.7 % DMSO	activation at 2 µM [1, 7]: 12.6%; activation at 10 µM [1, 8]: -2.9%
O=C1N(c2ccccc2)c2ccccc2C1(Cc1ccncc1)Cc1ccncc1 [Linopirdine]	–	–	–	–	–	–	–	activation at 2 µM [1, 12]: -7.9%; activation at 10 µM [1, 13]: -12.7%; viability at 0.1 µM (expanded OPCs; [14]): 90.7%; viability at 1 µM (expanded OPCs; [15]): 94.5%; viability at 10 µM (expanded OPCs; [16]): 86.2%
CN1[C@@H](CC(=O)c2ccccc2)CCC[C@H]1C[C@H](O)c1ccccc1 [Lobeline]	-5%	–	–	–	–	–	–	activation at 10 µM [1, 3]: 0.65%; viability at 0.1 µM (expanded OPCs; [14]): 96.9%; viability at 1 µM (expanded OPCs; [15]): 89.9%; viability at 10 µM (expanded OPCs; [16]): 64.3%
CN(CCCN1c2ccccc2CCc2ccccc21)CC(=O)c1ccc(Cl)cc1 [Lofepramine]	-3.7%	97.9%	79.6%	47.1%	–	–	–	activation at 0.4 µM [1, 17]: 1.3%
COc1ccc(CN2CCN(C(c3ccc(F)cc3)c3ccc(F)cc3)CC2)c(OC)c1OC [Lomerizine]	-3.9%	–	–	–	–	–	–	activation at 0.4 µM [1, 17]: 0.09%; viability at 0.1 µM (expanded OPCs; [14]): 92.5%; viability at 1 µM (expanded OPCs; [15]): 58.5%; viability at 10 µM (expanded OPCs; [16]): 11%
CN(C)C(=O)C(CCN1CCC(O)(c2ccc(Cl)cc2)CC1)(c1ccccc1)c1ccccc1 [Loperamide]	–	–	–	–	70.2 % DMSO	40.0 % DMSO	11.4 % DMSO	activation at 0.08 µM ([1]; NCC library screen, relative to quetiapine): -0.19%; activation at 0.4 µM ([1]; test compound at 0.4 uM, NCC library screen, relative to quetiapine, read-out: 0.4 uM (% Quet)): -17.5%
CCOC(=O)N1CCC(=C2c3ccc(Cl)cc3CCc3cccnc32)CC1 [Loratadine]	-36.8%	90.8%	77.7%	13.9%	–	–	–	activation at 0.4 µM [1, 17]: 5.6%
O=C1Nc2ccc(Cl)cc2C(c2ccccc2Cl)=NC1O (stereo not shown) [Lorazepam]	–	–	–	–	–	–	–	activation at 2 µM [1, 12]: -21.5%; activation at 10 µM [1, 13]: -31.2%; viability at 0.1 µM (expanded OPCs; [14]): 90.5%; viability at 1 µM (expanded OPCs; [15]): 81.6%; viability at 10 µM (expanded OPCs; [16]): 71.2%
CCCCc1nc(Cl)c(CO)n1Cc1ccc(-c2ccccc2-c2nn[nH]n2)cc1 [Losartan]	5.2%	97.6%	91.6%	102%	–	–	–	activation at 10 µM [1, 3]: -7.3%
CCOC(=O)O[C@]1(C(=O)OCCl)CC[C@H]2[C@@H]3CCC4=CC(=O)C=C[C@]4(C)[C@H]3[C@@H](O)C[C@@]21C [Loteprednol etabonate]	-10.9%	–	–	–	–	–	–	activation at 10 µM [1, 3]: -29.2%; viability at 0.1 µM (expanded OPCs; [14]): 104%; viability at 1 µM (expanded OPCs; [15]): 98.4%; viability at 10 µM (expanded OPCs; [16]): 86.4%
CC[C@H](C)C(=O)O[C@H]1C[C@@H](C)C=C2C=C[C@H](C)[C@H](CC[C@@H]3C[C@@H](O)CC(=O)O3)[C@H]21 [Lovastatin]	–	–	–	–	147.6 % DMSO	99.7 % DMSO	46.0 % DMSO	activation at 0.4 µM [1, 18]: -70.9%; activation at 2 µM [1, 7]: -93.2%
CN1CCN(C2=Nc3ccccc3Oc3ccc(Cl)cc32)CC1 [Loxapine]	-18.5%	85.7%	71.4%	29%	–	–	–	activation at 0.4 µM [1, 17]: -5.9%
CC(C)c1ccc2c(c1)c(SC(C)(C)C)c(CC(C)(C)C(=O)O)n2Cc1ccc(Cl)cc1 [MK 886]	–	–	–	–	–	–	–	0.4 uM (% Quet) ([1]; test compound at 0.4 uM, NCC library screen, relative to quetiapine): 51.1 % Quet; 2 uM (% Quet) ([1]; test compound at 2 uM, NCC library screen, relative to quetiapine): -93.5 % Quet; 0.1 µM (% DMSO) (expanded OPCs; alamarBlue viability, NCC library compound at 0.1 µM, sheet "All Tox data"): 97.3 % DMSO; 1 µM (% DMSO) (expanded OPCs; alamarBlue viability, NCC library compound at 1 µM, sheet "All Tox data"): 107.0 % DMSO; 10 µM (% DMSO) (expanded OPCs; alamarBlue viability, NCC library compound at 10 µM, sheet "All Tox data"): 10.8 % DMSO
NCc1ccc(S(N)(=O)=O)cc1 [Mafenide]	–	–	–	–	97.9 % DMSO	90.1 % DMSO	86.7 % DMSO	activation at 2 µM [1, 7]: 28.6%; activation at 10 µM [1, 8]: 10%
Cc1occc(=O)c1O [Maltol]	–	–	–	–	–	–	–	activation at 2 µM [1, 12]: -7%; activation at 10 µM [1, 13]: 8.2%; viability at 0.1 µM (expanded OPCs; [14]): 83.5%; viability at 1 µM (expanded OPCs; [15]): 91.1%; viability at 10 µM (expanded OPCs; [16]): 84.9%
CNCCCC12CCC(c3ccccc31)c1ccccc12 [Maprotiline]	-52.5%	78.2%	54.1%	13.8%	–	–	–	activation at 0.4 µM [1, 17]: 15.2%
COC(=O)Nc1nc2ccc(C(=O)c3ccccc3)cc2[nH]1 [Mebendazole]	–	–	–	–	47.2 % DMSO	53.6 % DMSO	45.7 % DMSO	activation at 0.08 µM ([1]; MBP expression relative to quetiapine, NCC library screen): -29.9%; activation at 0.4 µM [1, 18]: -139%
Cc1cccc(CN2CCN(C(c3ccccc3)c3ccc(Cl)cc3)CC2)c1 (stereo not shown) [Meclizine]	–	–	–	–	143.0 % DMSO	107.8 % DMSO	9.1 % DMSO	activation at 0.4 µM [1, 18]: 96.7%
Cc1ccc(Cl)c(Nc2ccccc2C(=O)O)c1Cl [Meclofenamic acid]	–	–	–	–	91.1 % DMSO	93.6 % DMSO	93.6 % DMSO	activation at 2 µM [1, 7]: 14.1%; activation at 10 µM [1, 8]: -2.1%
CC(=O)O[C@]1(C(C)=O)CC[C@H]2[C@@H]3C[C@H](C)C4=CC(=O)CC[C@]4(C)[C@H]3CC[C@@]21C [Medroxyprogesterone acetate]	–	–	–	–	104.2 % DMSO	103.1 % DMSO	118.4 % DMSO	activation at 2 µM [1, 12]: -30.5%; activation at 10 µM [1, 13]: -36.7%
